This passage reports IC50 results from US12371454B2, “Cyclic peptide compound having Kras inhibitory action” (priority 2019, dated 2025).

Starred links: 1 amine or outer side, 2 acyl side, 3 side chain; linkers in the order of their positions; H or OH if unused. Positions of bridges follow the written chain, without caps; N, C: chain ends. Non-standard residues stand in square brackets, D forms with d. Residues, ends and D or L forms follow the SMILES beside them. *: point of attachment. hPhe(3-Cl-4-CF3) = N[C@@H](CCc1ccc(C(F)(F)F)c(Cl)c1)C(=O)O; hPhe(3-F,4-CF3) = N[C@@H](CCc1ccc(C(F)(F)F)c(F)c1)C(=O)O; hPhe(4-CF3) = N[C@@H](CCc1ccc(C(F)(F)F)cc1)C(=O)O; NMePhe(4-Cl) = CN[C@@H](Cc1ccc(Cl)cc1)C(=O)O; NMedβ3hAla = C[C@H](CC(=O)[*:2])N(C)[*:1]; Phe(3-I) = N[C@@H](Cc1cccc(I)c1)C(=O)O; X70 = CC(C)(O)COCCN(CC(=O)[*:2])[*:1]; NMeCha = CN[C@@H](CC1CCCCC1)C(=O)O; NMeChg = CN[C@H](C(=O)O)C1CCCCC1; NMeF = CN[C@@H](Cc1ccccc1)C(=O)O; NMeI = CC[C@H](C)[C@H](NC)C(=O)O; NMeD = CN[C@@H](CC(=O)O)C(=O)O; NMeL = CN[C@@H](CC(C)C)C(=O)O; αMeL = CC(C)C[C@](C)(N)C(=O)O; Cba = N[C@@H](CC1CCC1)C(=O)O; NMeV = CN[C@H](C(=O)O)C(C)C; d(β3hA) = C[C@@H](N)CC(=O)O; NMeS = CN[C@@H](CO)C(=O)O; dNMeS = CN[C@H](CO)C(=O)O; NMeA = CN[C@@H](C)C(=O)O; NMeAib = CNC(C)(C)C(=O)O; Piperidide = C1CCN(*)CC1; Pra = C#CC[C@H](N)C(=O)O; Pyrrolidide = C1CCN(*)C1; Ac5c = NC1(C(=O)O)CCCC1; Aze = O=C(O)[C@@H]1CCN1; CH2CMe2OH = CC(C)(O)C*; Aib = CC(C)(N)C(=O)O; Isopentyl = CC(C)CC*; X47 = Fc1cncc(C*)c1; NEtG = CCNCC(=O)O; Sar = CNCC(=O)O; Propyl = CCC*

T1 sequence (P01116 1-188 isoform P01116-2 G12D): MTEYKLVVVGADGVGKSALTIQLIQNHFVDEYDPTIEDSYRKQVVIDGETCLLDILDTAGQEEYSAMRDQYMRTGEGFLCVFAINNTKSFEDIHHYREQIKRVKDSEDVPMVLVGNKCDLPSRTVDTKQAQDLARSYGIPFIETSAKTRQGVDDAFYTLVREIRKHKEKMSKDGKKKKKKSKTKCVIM

This assay addresses T1, Kras and SOS1 (biotin-tagged human Kras loaded with GDP, His-tagged human SOS1) (Homo sapiens, UniProt P01116, G12D).
T1 construct: made in house; host or cells: E. coli (stated for Kras only)
Nature of the assay: Protein-protein interaction inhibition between Kras and SOS1 (KrasGl2D-SOS PPI) using AlphaScreen. Conditions: AlphaScreen; biotin-tagged human Kras loaded with GDP, His-tagged human SOS1; read-out: KRAS G12D-SOS PPI IC50. Format: binding. A digest of the protocol: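 Binding between SOS1 and Kras is detected as bead-proximity luminescence: illuminate Ni-conjugated donors (680 nm), collect 520-620 nm emission from streptavidin-conjugated acceptors; Kras carries biotin and GDP loaded after purification, SOS1 carries a His tag.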
Background: Bead proximity is the source of the signal in Alpha formats.
Consider `CCCOC[C@H]1C(=O)N(C)CC(=O)N[C@@H](CCc2ccc(C(F)(F)F)c(Cl)c2)C(=O)N(CCOCC(C)(C)O)CC(=O)NC2(CCCC2)C(=O)N(C)[C@@H]([C@@H](C)CC)C(=O)N(C)[C@H](C)CC(=O)N(C)[C@@H](CC(C)C)C(=O)N[C@@H]([C@@H](C)CC)C(=O)N(C)[C@@H](C)C(=O)N2CC[C@H]2C(=O)N1C` [Compound 2027] (cyclo([Ac5c][NMeI][NMedβ3hAla][NMeL]I[NMeA][Aze][NMeS](Propyl)[Sar][hPhe(3-Cl-4-CF3)][X70])), for which the IC50 was 110 nM.

Regarding `CC[C@H](C)[C@@H]1NC(=O)[C@H](C)N(C)C(=O)C[C@@H](C(=O)N2CCCC2)NC(=O)[C@H](CC(C)C)N(C)C(=O)[C@H](Cc2ccccc2)N(C)C(=O)[C@@H]2CCCN2C(=O)[C@H](CCc2ccc(C(F)(F)F)cc2)NC(=O)CN(C)C(=O)[C@H](Cc2ccc(Cl)cc2)N(C)C(=O)CN(C)C(=O)CN(C)C1=O` [Compound 1048] ([NMeA]I[Sar][Sar][NMePhe(4-Cl)][Sar][hPhe(4-CF3)]P[NMeF][NMeL]D-Pyrrolidide; lactam N-11), the IC50 turned out to be 18 nM.

Regarding `CC[C@H](C)[C@@H]1NC(=O)[C@H](CC(C)C)N(C)C(=O)C[C@@H](C)NC(=O)[C@H](C(C)C)N(C)C(=O)[C@](C)(CC(C)C)NC(=O)[C@@H]2CCCN2C(=O)[C@H](CCc2ccc(C(F)(F)F)c(Cl)c2)NC(=O)CN(C)C(=O)[C@H](CC2CCCCC2)N(C)C(=O)CN(C)C(=O)CN(C)C1=O` [Compound 705] (cyclo(I[Sar][Sar][NMeCha][Sar][hPhe(3-Cl-4-CF3)]P[αMeL][NMeV][d(β3hA)][NMeL])), the IC50 was found to be 360 nM.

Take `CC[C@H](C)[C@@H]1NC(=O)[C@H](CC(C)C)N(C)C(=O)C[C@@H](C(=O)N2CCCCC2)N(C)C(=O)[C@H](C(C)C)N(C)C(=O)C2(CCCC2)NC(=O)[C@@H](COCCC(C)C)N(C)C(=O)[C@H](CCc2ccc(C(F)(F)F)c(Cl)c2)NC(=O)CN(C)C(=O)[C@H](CC2CCCCC2)N(C)C(=O)[C@@H]2CCN2C(=O)[C@H](C)N(C)C1=O` [Compound 1437] ([NMeL]I[NMeA][Aze][NMeCha][Sar][hPhe(3-Cl-4-CF3)][dNMeS](Isopentyl)[Ac5c][NMeV][NMeD]-Piperidide; lactam N-11): the half-inhibitory concentration (IC50) was determined as 81 nM. As to `CC(C)C[C@H]1C(=O)N[C@@H](C(C)C)C(=O)N(C)CC(=O)N(C)CC(=O)N(C)[C@@H](CC2CCCCC2)C(=O)N(C)CC(=O)N[C@@H](CCc2ccc(C(F)(F)F)c(F)c2)C(=O)N2CCC[C@H]2C(=O)NC2(CCCC2)C(=O)N(C)[C@@H](CC(C)C)C(=O)N[C@H](C)CC(=O)N1C` [Compound 1493] (cyclo([Ac5c][NMeL][d(β3hA)][NMeL]V[Sar][Sar][NMeCha][Sar][hPhe(3-F,4-CF3)]P)), the 50% inhibitory concentration (IC50) turned out to be 100 nM.

Turning to `C#CC[C@@H]1NC(=O)[C@H](Cc2cccc(I)c2)NC(=O)CN(C)C(=O)[C@H](Cc2ccccc2)N(C)C(=O)CN(C)C(=O)CN(C)C(=O)[C@H]([C@@H](C)CC)NC(=O)[C@H](CC(C)C)N(C)C(=O)C[C@@H](C(=O)N2CCCCC2)N(C)C(=O)[C@H](CC(C)C)NC(=O)C(C)(C)N(C)C1=O` [Compound 1184] ([NMeL]I[Sar][Sar][NMeF][Sar][Phe(3-I)][Pra][NMeAib]L[NMeD]-Piperidide; lactam N-11), the IC50 stood at 130 nM. Regarding `CC(C)C[C@H]1C(=O)N[C@@H](CC2CCC2)C(=O)N(C)CC(=O)N(C)CC(=O)N(C)[C@@H](CC2CCCCC2)C(=O)N(C)CC(=O)N[C@@H](CCc2ccc(C(F)(F)F)c(Cl)c2)C(=O)N2CCC[C@H]2C(=O)NC2(CCCC2)C(=O)N(C)[C@@H](C2CCCCC2)C(=O)N(C)[C@H](C(=O)N2CCCCC2)CC(=O)N1C` [Compound 1759] ([NMeL][Cba][Sar][Sar][NMeCha][Sar][hPhe(3-Cl-4-CF3)]P[Ac5c][NMeChg][NMeD]-Piperidide; lactam N-11), the 50% inhibitory concentration (IC50) worked out at 2.7 nM. `CC[C@H](C)[C@@H]1NC(=O)[C@H](CC(C)C)N(C)C(=O)C[C@@H](C)NC(=O)[C@H](CC(C)C)N(C)C(=O)C(C)(C)NC(=O)[C@H](COCC(C)(C)O)N(C)C(=O)[C@H](CCc2ccc(C(F)(F)F)c(Cl)c2)NC(=O)CN(C)C(=O)[C@H](COCCC(C)C)N(C)C(=O)CN(CC)C(=O)CN(C)C1=O` [Compound 1484] (cyclo([Aib][NMeL][d(β3hA)][NMeL]I[Sar][NEtG][NMeS](Isopentyl)[Sar][hPhe(3-Cl-4-CF3)][NMeS](CH2CMe2OH))): the IC50 is 190 nM. To `CC[C@H](C)[C@@H]1NC(=O)[C@H](C)N(C)C(=O)C[C@@H](C(=O)N2CCCC2)NC(=O)[C@H](CC(C)C)N(C)C(=O)[C@H](Cc2ccccc2)N(C)C(=O)[C@H](COCc2cncc(F)c2)NC(=O)[C@H](CCc2ccc(C(F)(F)F)cc2)NC(=O)CN(C)C(=O)[C@H](Cc2ccc(Cl)cc2)N(C)C(=O)CN(C)C(=O)CN(C)C1=O` [Compound 513] ([NMeA]I[Sar][Sar][NMePhe(4-Cl)][Sar][hPhe(4-CF3)]S(X47)[NMeF][NMeL]D-Pyrrolidide; lactam N-11) belongs 46 nM.

As a reminder, the IC50 is the concentration needed to halve the response being measured.
